Measurements from patent US20220281848A1, “PYRAZOLE-SUBSTITUTED PYRROLIDINONES AS HERBICIDES” (FMC Corporation, priority 2019, published 2022).

Experiments:
Format in all cases: in vivo
Settings in all cases: 19 to 21 days
[1] = tested on: wheat, winter (winter wheat, Triticum aestivum); experiment: Test B preemergence, wheat, winter
From the text: (§1) Seeds of plant species selected from blackgrass (Alopecurus myosuroides), Italian ryegrass (Lolium multiflorum), wheat, winter (winter wheat, Triticum aestivum), corn (Zea mays), large (Lg) crabgrass (Digitaria sanguinalis), giant foxtail (Setaria faberi), johnsongrass (Sorghum halepense), ragweed (common ragweed, Ambrosia elatior), soybean (Glycine max), barnyardgrass (Echinochloa crus-galli), waterhemp (common waterhemp, Amaranthus rudis), palmer pigweed (Amaranthus palmeri), and surinam grass (Brachiaria decumbens), were planted into a silt loam soil and treated preemergence with test chemicals formulated in a non-phytotoxic solvent mixture which included a surfactant.
(§2) Treated plants and controls were maintained in a greenhouse for 19 to 21 days, after which time all species were compared to controls and visually evaluated. Plant response ratings, summarized in Table B, are based on a scale of 0 to 100 where 0 is no effect and 100 is complete control.

[2] = tested on: large (Lg) crabgrass (Digitaria sanguinalis); experiment: Test B preemergence, large crabgrass
From the text: as §1, §2

[3] = tested on: ragweed (common ragweed, Ambrosia elatior); experiment: Test B preemergence, ragweed
From the text: as §1, §2

[4] = tested on: palmer pigweed (Amaranthus palmeri); experiment: Test C preemergence, palmer pigweed
From the text: (§3) Seeds of plant species selected from corn (Zea mays), soybean (Glycine max), velvetleaf (Abutilon theophrasti), palmer pigweed (Amaranthus palmeri), waterhemp (common waterhemp, Amaranthus rudis), surinam grass (Brachiaria decumbens), large (Lg) crabgrass (Digitaria sanguinalis), fall panicum (Panicum dichotomiflorum), giant foxtail (Setaria faberi), ragweed (common ragweed, Ambrosia elatior), barnyardgrass (Echinochloa crus-galli), E. Black Nightshade (Solanum ptycanthum), and horseweed (Conyza canadensis), were planted into a silt loam soil and treated preemergence with test chemicals formulated in a non-phytotoxic solvent mixture which included a surfactant.
(§4) Treated plants and controls were maintained in a greenhouse for 19 to 21 days, after which time all species were compared to controls and visually evaluated. Plant response ratings, summarized in Table C, are based on a scale of 0 to 100 where 0 is no effect and 100 is complete control.

[5] = tested on: horseweed (Conyza canadensis); experiment: Test C preemergence, horseweed
From the text: as §3, §4

CN1C[C@H](c2cc(C(F)(F)F)n(C)n2)[C@@H](C(=O)Nc2cccc(F)c2F)C1=O [Compound 13, (3S,4R)—N-(2,3-difluorophenyl)-1-methyl-4-[1-methyl-5-(trifluoromethyl)-1H-pyrazol-3-yl]-2-oxo-3-pyrrolidinecarboxamide]
Plant response rating (0 no effect, 100 complete control) Wheat ([1]; 16 g ai/ha Preemergence): 3 | Plant response rating (0 no effect, 100 complete control) Wheat ([1]; 31 g ai/ha Preemergence): 20 | Plant response rating (0 no effect, 100 complete control) Wheat ([1]; 62 g ai/ha Preemergence): 40 | Plant response rating (0 no effect, 100 complete control) Wheat ([1]; 125 g ai/ha Preemergence): 63 | Plant response rating (0 no effect, 100 complete control) Crabgrass, Large ([2]; 16 g ai/ha Preemergence): 100 | Plant response rating (0 no effect, 100 complete control) Crabgrass, Large ([2]; 31 g ai/ha Preemergence): 100 | Plant response rating (0 no effect, 100 complete control) Crabgrass, Large ([2]; 62 g ai/ha Preemergence): 100 | Plant response rating (0 no effect, 100 complete control) Crabgrass, Large ([2]; 125 g ai/ha Preemergence): 100 | Plant response rating (0 no effect, 100 complete control) Ragweed ([3]; 16 g ai/ha Preemergence): 0 | Plant response rating (0 no effect, 100 complete control) Ragweed ([3]; 31 g ai/ha Preemergence): 0 | Plant response rating (0 no effect, 100 complete control) Ragweed ([3]; 62 g ai/ha Preemergence): 0 | Plant response rating (0 no effect, 100 complete control) Ragweed ([3]; 125 g ai/ha Preemergence): 0 | Plant response rating (0 no effect, 100 complete control) Pigweed, Palmer ([4]; 4 g ai/ha Preemergence): 0 | Plant response rating (0 no effect, 100 complete control) Pigweed, Palmer ([4]; 8 g ai/ha Preemergence): 0 | Plant response rating (0 no effect, 100 complete control) Pigweed, Palmer ([4]; 16 g ai/ha Preemergence): 0 | Plant response rating (0 no effect, 100 complete control) Pigweed, Palmer ([4]; 31 g ai/ha Preemergence): 0 | Plant response rating (0 no effect, 100 complete control) Pigweed, Palmer ([4]; 62 g ai/ha Preemergence): 0 | Plant response rating (0 no effect, 100 complete control) Pigweed, Palmer ([4]; 125 g ai/ha Preemergence): 28 | Plant response rating (0 no effect, 100 complete control) Horseweed ([5]; 4 g ai/ha Preemergence): 0 | Plant response rating (0 no effect, 100 complete control) Horseweed ([5]; 8 g ai/ha Preemergence): 0 | Plant response rating (0 no effect, 100 complete control) Horseweed ([5]; 16 g ai/ha Preemergence): 0 | Plant response rating (0 no effect, 100 complete control) Horseweed ([5]; 31 g ai/ha Preemergence): 30 | Plant response rating (0 no effect, 100 complete control) Horseweed ([5]; 62 g ai/ha Preemergence): 45 | Plant response rating (0 no effect, 100 complete control) Horseweed ([5]; 125 g ai/ha Preemergence): 65
